Reference: PubChem BioAssay AID2060618 (Molecular Pharmacology Branch, DTP, NCI, 2025)
Blank lines part the entries; values can stand above or below the compound they belong to.

Tested on: 454973-116-R2-J3-PDC spheroids, percent test/control viability
Test: Anticancer human tumor 454973-116-R2-J3-PDC patient-derived pancreatic carcinoma cell line growth inhibition [CLK]
Conditions: spheroids with HUVEC and MSC; for IC50: curve of first compound; for viability, T/C: stronger effect = lower value
Procedure, shortened: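 Patient-derived tumor cells grown as complex spheroids with HUVEC endothelial cells and mesenchymal stem cells, treated with drug combinations. Concentrations descend in half-log steps from near clinical Cmax, or from 10 microM if Cmax unknown.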

[1] = second compound 0.0316 µM, first compound 0.00316 µM
[2] = second compound 0.0316 µM, first compound 0.01 µM
[3] = second compound 0.0316 µM, first compound 0.0316 µM
[4] = second compound 0.0316 µM, first compound 0.1 µM
[5] = second compound 0.0316 µM, first compound 0.316 µM
[6] = second compound 0.0316 µM, first compound 1 µM
[7] = second compound 0.1 µM, first compound 0.00316 µM
[8] = second compound 0.1 µM, first compound 0.01 µM
[9] = second compound 0.1 µM, first compound 0.0316 µM
[10] = second compound 0.1 µM, first compound 0.1 µM
[11] = second compound 0.1 µM, first compound 0.316 µM
[12] = second compound 0.1 µM, first compound 1 µM
[13] = second compound 0.316 µM, first compound 0.00316 µM
[14] = second compound 0.316 µM, first compound 0.01 µM
[15] = second compound 0.316 µM, first compound 0.0316 µM
[16] = second compound 0.316 µM, first compound 0.1 µM
[17] = second compound 0.316 µM, first compound 0.316 µM
[18] = second compound 0.316 µM, first compound 1 µM
[19] = second compound 1 µM, first compound 0.00316 µM
[20] = second compound 1 µM, first compound 0.01 µM
[21] = second compound 1 µM, first compound 0.0316 µM
[22] = second compound 1 µM, first compound 0.1 µM
[23] = second compound 1 µM, first compound 0.316 µM
[24] = second compound 1 µM, first compound 1 µM
[25] = second compound 3.16 µM, first compound 0.00316 µM
[26] = second compound 3.16 µM, first compound 0.01 µM
[27] = second compound 3.16 µM, first compound 0.0316 µM
[28] = second compound 3.16 µM, first compound 0.1 µM
[29] = second compound 3.16 µM, first compound 0.316 µM
[30] = second compound 3.16 µM, first compound 1 µM
[31] = second compound 10 µM, first compound 0.00316 µM
[32] = second compound 10 µM, first compound 0.01 µM
[33] = second compound 10 µM, first compound 0.0316 µM
[34] = second compound 10 µM, first compound 0.1 µM
[35] = second compound 10 µM, first compound 0.316 µM
[36] = second compound 10 µM, first compound 1 µM
[37] = second compound 0.0316 µM, first compound 3.16 µM
[38] = second compound 0.0316 µM, first compound 10 µM
[39] = second compound 0.1 µM, first compound 3.16 µM
[40] = second compound 0.1 µM, first compound 10 µM
[41] = second compound 0.316 µM, first compound 3.16 µM
[42] = second compound 0.316 µM, first compound 10 µM
[43] = second compound 1 µM, first compound 3.16 µM
[44] = second compound 1 µM, first compound 10 µM
[45] = second compound 3.16 µM, first compound 3.16 µM
[46] = second compound 3.16 µM, first compound 10 µM
[47] = second compound 10 µM, first compound 3.16 µM
[48] = second compound 10 µM, first compound 10 µM
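Also: spheroids exposed to compounds for 7 days before readout.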

IC50 (second compound 0.0316 µM): < 3.16 nM
IC50 (second compound 0.1 µM): < 3.16 nM
IC50 (second compound 0.316 µM): < 3.16 nM
IC50 (second compound 1 µM): < 3.16 nM
IC50 (second compound 3.16 µM): < 3.16 nM
IC50 (second compound 10 µM): < 3.16 nM
Structure (SMILES): CCc1c2c(nc3ccc(O)cc13)-c1cc3c(c(=O)n1C2)COC(=O)[C@]3(O)CC + CNC(=O)c1ccc(Nc2nc(OC3CCCC3)c3c(-c4ccc5nc(C)oc5c4)c[nH]c3n2)c(OC)c1
viability, T/C [1]: 27.4%
viability, T/C [2]: 16.7%
viability, T/C [3]: 12.8%
viability, T/C [4]: 5.45%
viability, T/C [5]: 4.91%
viability, T/C [6]: 1.19%
viability, T/C [7]: 21.7%
viability, T/C [8]: 18.1%
viability, T/C [9]: 13.6%
viability, T/C [10]: 9.68%
viability, T/C [11]: 3.81%
viability, T/C [12]: 1.47%
viability, T/C [13]: 20.4%
viability, T/C [14]: 17.1%
viability, T/C [15]: 10.5%
viability, T/C [16]: 6.75%
viability, T/C [17]: 2.62%
viability, T/C [18]: 1.9%
viability, T/C [19]: 24%
viability, T/C [20]: 17.2%
viability, T/C [21]: 6.96%
viability, T/C [22]: 2.96%
viability, T/C [23]: 2.33%
viability, T/C [24]: 1.14%
viability, T/C [25]: 24.5%
viability, T/C [26]: 16.7%
viability, T/C [27]: 7.28%
viability, T/C [28]: 4.75%
viability, T/C [29]: 2.45%
viability, T/C [30]: 0.84%
viability, T/C [31]: 22.6%
viability, T/C [32]: 15.3%
viability, T/C [33]: 4.85%
viability, T/C [34]: 5.04%
viability, T/C [35]: 3.11%
viability, T/C [36]: 0.6%

IC50 (second compound 0.0316 µM): > 100 nM
IC50 (second compound 0.1 µM): > 100 nM
IC50 (second compound 0.316 µM): < 0.316 nM
IC50 (second compound 1 µM): < 0.316 nM
IC50 (second compound 3.16 µM): < 0.316 nM
IC50 (second compound 10 µM): < 0.316 nM
Structure (SMILES): Cn1ncnc1[C@H]1c2n[nH]c(=O)c3cc(F)cc(c23)N[C@@H]1c1ccc(F)cc1 + CNC(=O)c1ccc(Nc2nc(OC3CCCC3)c3c(-c4ccc5nc(C)oc5c4)c[nH]c3n2)c(OC)c1
viability, T/C (second compound 0.0316 µM, first compound 0.000316 µM): 110%
viability, T/C (second compound 0.0316 µM, first compound 0.001 µM): 114%
viability, T/C [1]: 110%
viability, T/C [2]: 119%
viability, T/C [3]: 105%
viability, T/C [4]: 86.2%
viability, T/C (second compound 0.1 µM, first compound 0.000316 µM): 113%
viability, T/C (second compound 0.1 µM, first compound 0.001 µM): 104%
viability, T/C [7]: 104%
viability, T/C [8]: 106%
viability, T/C [9]: 104%
viability, T/C [10]: 86.4%
viability, T/C (second compound 0.316 µM, first compound 0.000316 µM): 43.1%
viability, T/C (second compound 0.316 µM, first compound 0.001 µM): 51.2%
viability, T/C [13]: 50.8%
viability, T/C [14]: 52.2%
viability, T/C [15]: 52.2%
viability, T/C [16]: 48.1%
viability, T/C (second compound 1 µM, first compound 0.000316 µM): 33.1%
viability, T/C (second compound 1 µM, first compound 0.001 µM): 31.5%
viability, T/C [19]: 27.8%
viability, T/C [20]: 36.4%
viability, T/C [21]: 31.1%
viability, T/C [22]: 23.5%
viability, T/C (second compound 3.16 µM, first compound 0.000316 µM): 29.2%
viability, T/C (second compound 3.16 µM, first compound 0.001 µM): 26.7%
viability, T/C [25]: 29%
viability, T/C [26]: 25.7%
viability, T/C [27]: 23.9%
viability, T/C [28]: 21.4%
viability, T/C (second compound 10 µM, first compound 0.000316 µM): 25.5%
viability, T/C (second compound 10 µM, first compound 0.001 µM): 27.6%
viability, T/C [31]: 25.8%
viability, T/C [32]: 21.7%
viability, T/C [33]: 24.5%
viability, T/C [34]: 19.6%

IC50 (second compound 0.0316 µM): < 31.6 nM
IC50 (second compound 0.1 µM): < 31.6 nM
IC50 (second compound 0.316 µM): < 31.6 nM
IC50 (second compound 1 µM): < 31.6 nM
IC50 (second compound 3.16 µM): < 31.6 nM
IC50 (second compound 10 µM): < 31.6 nM
Structure (SMILES): Nc1ccn(C2OC(CO)C(O)C2(F)F)c(=O)n1 (stereo not drawn) + CNC(=O)c1ccc(Nc2nc(OC3CCCC3)c3c(-c4ccc5nc(C)oc5c4)c[nH]c3n2)c(OC)c1
viability, T/C [3]: 10.8%
viability, T/C [4]: 9.2%
viability, T/C [5]: 11.1%
viability, T/C [6]: 7.75%
viability, T/C [37]: 7.61%
viability, T/C [38]: 8.18%
viability, T/C [9]: 9.97%
viability, T/C [10]: 8.66%
viability, T/C [11]: 10.6%
viability, T/C [12]: 9.85%
viability, T/C [39]: 11.6%
viability, T/C [40]: 10.8%
viability, T/C [15]: 11.5%
viability, T/C [16]: 10.7%
viability, T/C [17]: 11.8%
viability, T/C [18]: 10.4%
viability, T/C [41]: 10.3%
viability, T/C [42]: 8.88%
viability, T/C [21]: 11.7%
viability, T/C [22]: 6.57%
viability, T/C [23]: 7.9%
viability, T/C [24]: 9.2%
viability, T/C [43]: 7.06%
viability, T/C [44]: 8.15%
viability, T/C [27]: 11.8%
viability, T/C [28]: 6.57%
viability, T/C [29]: 7.14%
viability, T/C [30]: 9.4%
viability, T/C [45]: 7.28%
viability, T/C [46]: 7.11%
viability, T/C [33]: 13%
viability, T/C [34]: 8.08%
viability, T/C [35]: 4.66%
viability, T/C [36]: 6.23%
viability, T/C [47]: 9.5%
viability, T/C [48]: 8.08%

IC50 (second compound 0.0316 µM): 1650 nM
IC50 (second compound 0.1 µM): 2020 nM
IC50 (second compound 0.316 µM): 41.2 nM
IC50 (second compound 1 µM): < 31.6 nM
IC50 (second compound 3.16 µM): < 31.6 nM
IC50 (second compound 10 µM): < 31.6 nM
Structure (SMILES): O=c1[nH]cc(F)c(=O)[nH]1 + CNC(=O)c1ccc(Nc2nc(OC3CCCC3)c3c(-c4ccc5nc(C)oc5c4)c[nH]c3n2)c(OC)c1
viability, T/C [3]: 94.7%
viability, T/C [4]: 107%
viability, T/C [5]: 88.5%
viability, T/C [6]: 61.7%
viability, T/C [37]: 32.6%
viability, T/C [38]: 38.4%
viability, T/C [9]: 100%
viability, T/C [10]: 113%
viability, T/C [11]: 106%
viability, T/C [12]: 75.8%
viability, T/C [39]: 33.6%
viability, T/C [40]: 32.1%
viability, T/C [15]: 49.4%
viability, T/C [16]: 49.3%
viability, T/C [17]: 42.5%
viability, T/C [18]: 37.5%
viability, T/C [41]: 28.4%
viability, T/C [42]: 25.3%
viability, T/C [21]: 32.9%
viability, T/C [22]: 28.1%
viability, T/C [23]: 21.6%
viability, T/C [24]: 20.6%
viability, T/C [43]: 16.2%
viability, T/C [44]: 19.6%
viability, T/C [27]: 29.8%
viability, T/C [28]: 33%
viability, T/C [29]: 24.5%
viability, T/C [30]: 19.1%
viability, T/C [45]: 16.4%
viability, T/C [46]: 18.9%
viability, T/C [33]: 25.1%
viability, T/C [34]: 25.3%
viability, T/C [35]: 19.7%
viability, T/C [36]: 19.3%
viability, T/C [47]: 17.2%
viability, T/C [48]: 14.2%
